Non-standard residues stand in square brackets, D forms with d. Residues, ends and D or L forms follow the SMILES beside them. *: point of attachment. X1 = CC(=O)N[C@@H]1[C@@H](O[C@@H]2O[C@H](CO)[C@H](O)[C@H](O)[C@H]2O)[C@@H](O)[C@@H](CO)O[C@@H]1*; pGlu = O=C1CC[C@@H](C(=O)O)N1
Tests used:
[1] = mouse, in vivo
[2] = mouse, in vivo; remark: listed apart in the source

Row | Structure (SMILES) | motor impairment on rotorod compared to vehicle [1] | antinociceptive doses relative to doses for locomotor impairment or hypothermia [2] | doses causing long-lasting motor impairment, as multiple of ED50 [2] [fold] | duration of motor impairment [2] [h] | time of maximal locomotor impairment post i.t. injection [2] [min] | TD50, rotorod test of minimal motor impairment [2] [pmol] | time after which motor impairment resolved [2] [h]
1 | CC[C@H](C)[C@H](NC(=O)[C@H](Cc1ccc(O)cc1)NC(=O)[C@@H]1CCCN1C(=O)[C@H](CCCCN)NC(=O)[C@H](CCCCN)NC(=O)[C@@H](NC(=O)[C@H](C)NC(=O)[C@H](CC(N)=O)NC(=O)[C@H](CO)NC(=O)CNC(=O)CNC(=O)[C@H](CCC(=O)O)NC(=O)[C@H](CCC(=O)O)NC(=O)[C@H](CO)NC(=O)[C@@H]1CCC(=O)N1)[C@@H](C)O)C(=O)N[C@@H](CC(C)C)C(=O)O [Thr10-contulakin-G] (HELM PEPTIDE1{[Glp].S.E.E.G.G.S.N.A.T.K.K.P.Y.I.L}$$$$V2.0) | no motor impairment | approximately equal doses | ≥ 10 | 2 to 3 | 15 | – | –
2 | CC[C@H](C)[C@H](NC(=O)[C@H](Cc1ccc(O)cc1)NC(=O)[C@@H]1CCCN1C(=O)[C@H](CCCCN)NC(=O)[C@H](CCCCN)NC(=O)[C@@H](NC(=O)[C@H](C)NC(=O)[C@H](CC(N)=O)NC(=O)[C@H](CO)NC(=O)CNC(=O)CNC(=O)[C@H](CCC(=O)O)NC(=O)[C@H](CCC(=O)O)NC(=O)[C@H](CO)NC(=O)[C@@H]1CCC(=O)N1)[C@@H](C)O[C@H]1O[C@H](CO)[C@H](O)[C@H](O[C@@H]2O[C@H](CO)[C@H](O)[C@H](O)[C@H]2O)[C@H]1NC(C)=O)C(=O)N[C@@H](CC(C)C)C(=O)O [contulakin-G] ([pGlu]SEEGGSNAT(X1)KKPYIL-OH) | – | 10-100 fold | ≥ 100 | – | 15 | 10 to 20 | 5
